Measurements: PubChem BioAssay (NCI)
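Following 48 hours of exposure in 96-well plates, responses at five concentrations were used to interpolate endpoints linearly. At the TGI there is no net growth.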

Columns and labels:
Assay in all cases: inhibition of tumour cell growth, NCI panel, 48 h
SF-295 CNS = tested on: SF-295 CNS
OVCAR-4 ovarian = tested on: OVCAR-4 ovarian
EKVX NSCLC = tested on: EKVX NSCLC
CCRF-CEM leukemia = tested on: CCRF-CEM leukemia
NCI-H522 lung = tested on: NCI-H522 lung
NCI-H23 lung = tested on: NCI-H23 lung
CAKI-1 renal = tested on: CAKI-1 renal
UACC-62 melanoma = tested on: UACC-62 melanoma
HOP-92 NSCLC = tested on: HOP-92 NSCLC
K-562 leukemia = tested on: K-562 leukemia
OVCAR-3 ovarian = tested on: OVCAR-3 ovarian
HOP-62 NSCLC = tested on: HOP-62 NSCLC
NCI-H226 lung = tested on: NCI-H226 lung
M14 melanoma = tested on: M14 melanoma
SF-539 CNS = tested on: SF-539 CNS
SK-OV-3 ovarian = tested on: SK-OV-3 ovarian

SMILES | TGI (SF-295 CNS) | TGI (OVCAR-4 ovarian) | TGI (EKVX NSCLC) | TGI (CCRF-CEM leukemia) | TGI (NCI-H522 lung) | TGI (NCI-H23 lung) | TGI (CAKI-1 renal) | TGI (UACC-62 melanoma) | TGI (HOP-92 NSCLC) | TGI (K-562 leukemia) | TGI (OVCAR-3 ovarian) | TGI (HOP-62 NSCLC) | TGI (NCI-H226 lung) | TGI (M14 melanoma) | TGI (SF-539 CNS) | TGI (SK-OV-3 ovarian)
COc1ccc(/C(Cl)=C(\c2ccc(OCCN(C)C)cc2)c2ccc(OC(=O)C(C)(C)C)cc2)cc1 | 28 µM | 26.9 µM | 26.6 µM | 24.9 µM | 28.6 µM | 29.1 µM | 27.8 µM | 28 µM | 34 µM | 14.3 µM | 28.5 µM | 30.5 µM | 25.7 µM | 12.1 µM | 26.8 µM | 24.4 µM
CSc1nc(NC2OC(COC(C)=O)C(OC(C)=O)C(OC(C)=O)C2OC(C)=O)c(-c2csc(N)n2)c(=O)n1C (configuration not stated) | > 100 µM | 55.1 µM |  | > 100 µM | > 100 µM | > 100 µM | > 100 µM | 89.4 µM | 63.1 µM | > 100 µM | > 100 µM | 66.9 µM | 81.7 µM | > 100 µM | > 100 µM | > 100 µM
CC1=C(Cl)C=CP(=O)(OC(C)C)C1 (configuration not stated) | > 100 µM | > 100 µM | > 100 µM | > 100 µM | 87.7 µM | > 100 µM |  | > 100 µM | > 100 µM | > 100 µM | > 100 µM | > 100 µM |  | > 100 µM | > 100 µM | 
CC1(C)OCC([C@H]2CC23SCCCS3)O1 (some centres not stated) | > 100 µM | > 100 µM | > 100 µM |  | > 100 µM | > 100 µM | > 100 µM | > 100 µM | > 100 µM | > 100 µM |  | > 100 µM | > 100 µM | > 100 µM | > 100 µM | > 100 µM
Cc1cc(=O)[nH]c(NNC(C#N)c2c(O)ccc3ccccc23)n1 (configuration not stated) | > 100 µM | 31.1 µM |  | > 100 µM | 23.7 µM | 20.5 µM | 22 µM | 10.1 µM | 79.6 µM | > 100 µM | 43.1 µM | 73.8 µM | 17.6 µM | 15.6 µM | 13.7 µM | 52.6 µM
CC1(S)CC2C(CC1Sc1ccccc1)C2(C)C (configuration not stated) | > 100 µM | > 100 µM | > 100 µM | > 100 µM |  | > 100 µM |  |  | > 100 µM | > 100 µM | > 100 µM |  | > 100 µM | > 100 µM | > 100 µM | > 100 µM
CCOC(=O)[C@H]1Nc2ccc([N+](=O)[O-])cc2C2c3ccccc3CC21 (some centres not stated) | 31.2 µM | 49.8 µM |  | 43.8 µM | 29.3 µM | 73.6 µM | > 100 µM | 30.6 µM |  | 52.2 µM | 23.1 µM | 39 µM | 55.1 µM | 34.3 µM | 31.8 µM | 
CNS(=O)(=O)NN(C)S(=O)(=O)c1ccc2ccccc2c1 | > 100 µM | > 100 µM | > 100 µM | > 100 µM | > 100 µM | > 100 µM | > 100 µM | > 100 µM |  | > 100 µM |  | > 100 µM | > 100 µM | > 100 µM | > 100 µM | > 100 µM
NCCCCC(=O)c1cccnc1 | > 100 µM |  | > 100 µM | > 100 µM | > 100 µM | > 100 µM | > 100 µM | > 100 µM | > 100 µM | > 100 µM | > 100 µM | > 100 µM |  | > 100 µM | > 100 µM | > 100 µM
NC(=O)N/N=C(/Cc1nc2ccc(C(=O)c3ccccc3)cc2[nH]c1=O)C(=O)Nc1ccc(C(F)(F)F)cc1[N+](=O)[O-] | > 100 µM | > 100 µM | > 100 µM | > 100 µM | 76.3 µM | > 100 µM | > 100 µM | > 100 µM | > 100 µM | > 100 µM | > 100 µM | > 100 µM |  | > 100 µM | > 100 µM | > 100 µM
C[C@@H]1C2=CC[C@@]3(C)C(CCC3[C@H](C)[C@H]3C[C@@]4(C)O[C@@](c5cccnc5)(O3)OC4(C)C)[C@@H]2C2OC2[C@@]12CCC(=O)O2 (some centres not stated) | > 100 µM |  |  | > 100 µM | > 100 µM | > 100 µM | 79.6 µM | > 100 µM | 76.9 µM | > 100 µM | 85.9 µM | > 100 µM |  | 60.6 µM | > 100 µM | > 100 µM
O=C(Nc1cc(Cl)cc(Cl)c1)/C(Cc1nc2ccccc2[nH]c1=O)=N/NC(=O)c1ccncc1 | > 100 µM | > 100 µM | > 100 µM | > 100 µM |  |  | > 100 µM | > 100 µM | > 100 µM | > 100 µM | > 100 µM | > 100 µM |  | > 100 µM | > 100 µM | > 100 µM
O=S1(=O)CCCS(=O)(=O)C(c2ccccc2)=C1c1ccccc1 |  | > 100 µM | > 100 µM | > 100 µM | 89.9 µM | > 100 µM | > 100 µM | > 100 µM | 85.3 µM | > 100 µM | > 100 µM | 96.8 µM | > 100 µM | > 100 µM | > 100 µM | > 100 µM
